Here are results for 1 molecule from patent US20160221948A1, “NITROGEN-CONTAINING SATURATED HETEROCYCLIC COMPOUND” (SUMITOMO CHEMICAL COMPANY, LIMITED, priority 2013, published 2016).

Experiment [1] relates to SH-SY5Y cells stably expressing human neprilysin/human SSTR4. The experiment is described as follows: Neprilysin membrane translocation test using human neprilysin/human SSTR4 coexpressing cells. The format is cell-based. On the procedure:
Neprilysin Membrane Translocation Test Using Human Neprilysin/Human SSTR4 Coexpressing Cells
SH-SY5Y cells stably expressing human neprilysin/human SSTR4 were seeded to culture plates, and incubated in a 37° C./5% CO2 incubator overnight. On the next day, the compounds involved with the present invention were added, and cells were incubated in the 37° C./5% CO2 incubator another night. On the next day, 4% paraformaldehyde was added, and cells were fixed. The cells were washed, and blocked with 3% BSA solution. Then, immunostaining with an anti-neprilysin antibody and Alexa Fluor 488 donkey anti-mouse IgG was performed, and analyzed with an IN CELL Analyzer.

The next experiment deals with T1, SSTR2 (Homo sapiens, UniProt P30874).
T1 construct: expressed in transfected cells
The experiment is described as follows: Binding affinity using cell membrane from cells expressing SSTR subtypes.

A further experiment has as its target T2, SSTR3 (Homo sapiens, UniProt P32745).
T2 construct: expressed in transfected cells
The description is as above.

Experiment [2] deals with Tg 2576 mice. The experiment is described as follows: Aβ reducing action (brain Aβ by ELISA) using Tg 2576 mice. The class given is in vivo, mouse. Here is the method: (§1) Evaluation of Cognitive Function Improving Action and Aβ Reducing Action Using Tg 2576 Mice
(§2) Four-month-old Tg 2576 mice received compounds involved with the present invention mixed in feed for 4 months. After completion of administration, the mORT test was performed to evaluate cognitive function, then the amount of brain Aβ was measured by ELISA. […] Discrimination index as indexes for evaluating cognitive function were as follows (vehicle, 0.064±0.049, 30 mg/kg/day; 0.330±0.062).
(ELISA stands for enzyme-linked immunosorbent assay.)

The next experiment concerns the target human SSTR4 (Homo sapiens, UniProt P31391). The experiment is described as follows: Binding affinity using cell membrane from human SSTR4-expressing Chem-1 cells, [125I] Tyr11-Somatostatin 14. Set-up: expressed in transfected cells. Conditions: 0.1 nmol/L [125I] Tyr11-Somatostatin 14, 2 hours at 25° C. Here is the method: Binding affinity evaluation using cell membrane from human SSTR4-expressing cells
From Chem-1 cells forcibly expressing human SSTR4, cell membrane was prepared by using Hepes Buffer. A reaction solution consisting of the prepared cell membrane, 0.1 nmol/L [^125I] Tyr11-Somatostatin 14, and a test compound was prepared, and incubated for 2 hours at 25° C. The cell membrane after incubation was filtered, and washed. After dried, the filter was immersed in a scintillator, its radioactivity was measured with a scintillation counter. By defining the difference in radioactivity between the substance not containing a test compound and the substance containing 1 μmol/L Somatostatin 14 as the specific binding amount, inhibitory rates of test compounds were calculated. Based on IC50 of the test compound calculated from the inhibition curve, the concentration of [^125I] Tyr11-Somatostatin 14, and Kd of Somatostatin 14, Ki of the test compound was calculated.

The target in another experiment is T3, SSTR5 (Homo sapiens, UniProt P35346).
T3 construct: expressed in transfected cells
The experiment is described as follows: Binding affinity using cell membrane from cells expressing SSTR subtypes.

Experiment [3] has as its system Slc:ddY mice. The experiment is described as follows: Mouse novel object recognition test (mORT). The class given is in vivo. On the procedure: Evaluation of cognitive function using mouse novel object recognition test (hereinafter, may be called “mORT”)
In the mORT using Slc:ddY mice (male, Japan SLC, Inc.) with body weight of 25-45 g or 35-40 g, memory deterioration to familiar subject depending on the interval time between the first trial (training) and the second trial (test) is observed. If the second trial is performed 24 hours after performing the first trial, significant forgetting is observed. […] […] (discrimination index as indexes for cognitive function are shown: 0.5% MC receiving group, 0.054±0.026; 3 mg/kg receiving group, 0.245±0.066.)

In the next experiment the target is T4, SSTR1 (Homo sapiens, UniProt P30872).
T4 construct: expressed in transfected cells
The experiment is described as follows: Binding affinity using cell membrane from cells expressing SSTR subtypes.

In the next experiment the test system is Crlj: WI rats. The experiment is described as follows: Acetylcholine release enhancing action, hippocampus microdialysis test using rats. The format is in vivo, rat. Conditions: 10 mg/kg (oral), 60 minutes after administration, high potassium stimulation. On the procedure: Examination of Acetylcholine Release Enhancing Action with Microdialysis Test Using Rats
A guide cannula was placed into the hippocampus of Crlj: WI rats, and microdialysis was performed by inserting a probe after the animals were recovered. After administering the compounds involved with the present invention, the hippocampus was stimulated by changing the perfusate into the high potassium solution for 15 minutes. Acetylcholine levels in the perfusate were analyzed with a HPLC-ECD apparatus.

Experiment [4] concerns Tg 2576 mice. The experiment is described as follows: Cognitive function improving action (mORT) using Tg 2576 mice. Conditions: 30 mg/kg/day mixed in feed for 4 months. The class given is in vivo, mouse. On the procedure:
as §1, §2

In experiment [5] the test system is Slc:ddY mice. The experiment is described as follows: Mouse Y-shaped maze test, scopolamine-induced memory impairment. The conditions noted are these: for spontaneous alternations: Scopolamine HBr 0.6 mg/kg subcutaneous. The format is in vivo. On the procedure:
Evaluation of amelioration in cognitive impairment using mouse Y-shaped maze test (hereinafter, may be called “Y-maze test”)
In the Y-maze test using Slc:ddY mice (male, Japan SLC, Inc.) with body weight of 25-35 g or 27-30 g, when 0.6 mg/kg of Scopolamine HBr (cat. No. S0929, Sigma Aldrich, USA) is subcutaneously administered to mice, memory impairment is caused, and reducing in spontaneous alternation is observed. Accordingly, mice were pre-treated by orally receiving compounds involved with the present invention, and ameliorating action in memory impairment was evaluated. […] (hereinafter, spontaneous alternations in each group in Example 21 are shown: 0.5% MC receiving group, 71.2±3.5; Scopolamine receiving group, 47.5±2.6; 1 mg/kg receiving group, 60.7±2.6; 3 mg/kg receiving group, 64.6±2.2.)

The mark [6] stands for this setting: 3 mg/kg oral, given after the first trial.

T3 sequence (P35346 whole entry, species assumed): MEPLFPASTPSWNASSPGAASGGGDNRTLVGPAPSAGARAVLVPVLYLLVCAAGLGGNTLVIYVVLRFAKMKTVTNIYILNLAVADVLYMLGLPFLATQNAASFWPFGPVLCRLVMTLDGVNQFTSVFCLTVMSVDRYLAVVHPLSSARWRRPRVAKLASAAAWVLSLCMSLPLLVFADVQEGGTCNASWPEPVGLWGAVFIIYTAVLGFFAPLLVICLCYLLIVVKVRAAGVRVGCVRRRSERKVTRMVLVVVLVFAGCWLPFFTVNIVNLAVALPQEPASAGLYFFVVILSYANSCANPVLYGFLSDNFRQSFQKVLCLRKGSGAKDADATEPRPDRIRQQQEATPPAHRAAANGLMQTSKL
Sequence of human SSTR4 (P31391 whole entry): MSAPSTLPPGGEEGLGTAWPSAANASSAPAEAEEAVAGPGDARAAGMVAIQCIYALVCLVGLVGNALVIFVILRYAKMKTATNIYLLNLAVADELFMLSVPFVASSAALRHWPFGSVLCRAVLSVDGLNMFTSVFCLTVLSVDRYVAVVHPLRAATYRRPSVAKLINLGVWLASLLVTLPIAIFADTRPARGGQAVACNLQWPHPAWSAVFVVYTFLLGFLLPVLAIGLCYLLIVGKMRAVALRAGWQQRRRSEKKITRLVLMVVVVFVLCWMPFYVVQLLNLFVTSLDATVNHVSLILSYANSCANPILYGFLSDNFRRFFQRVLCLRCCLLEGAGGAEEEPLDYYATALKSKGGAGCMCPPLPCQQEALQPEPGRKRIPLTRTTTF
T1 sequence (P30874 whole entry, species assumed): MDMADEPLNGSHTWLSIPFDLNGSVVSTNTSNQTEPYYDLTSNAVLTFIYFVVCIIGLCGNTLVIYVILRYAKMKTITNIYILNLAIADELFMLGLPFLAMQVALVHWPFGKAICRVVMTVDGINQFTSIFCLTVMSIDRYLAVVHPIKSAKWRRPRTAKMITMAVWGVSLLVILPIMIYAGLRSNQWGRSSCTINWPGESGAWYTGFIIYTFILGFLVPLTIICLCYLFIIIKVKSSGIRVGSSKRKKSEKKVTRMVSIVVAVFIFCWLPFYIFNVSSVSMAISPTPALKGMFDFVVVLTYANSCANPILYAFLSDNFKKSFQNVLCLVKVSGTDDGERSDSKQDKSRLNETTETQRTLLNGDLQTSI
T4 sequence (P30872 whole entry, species assumed): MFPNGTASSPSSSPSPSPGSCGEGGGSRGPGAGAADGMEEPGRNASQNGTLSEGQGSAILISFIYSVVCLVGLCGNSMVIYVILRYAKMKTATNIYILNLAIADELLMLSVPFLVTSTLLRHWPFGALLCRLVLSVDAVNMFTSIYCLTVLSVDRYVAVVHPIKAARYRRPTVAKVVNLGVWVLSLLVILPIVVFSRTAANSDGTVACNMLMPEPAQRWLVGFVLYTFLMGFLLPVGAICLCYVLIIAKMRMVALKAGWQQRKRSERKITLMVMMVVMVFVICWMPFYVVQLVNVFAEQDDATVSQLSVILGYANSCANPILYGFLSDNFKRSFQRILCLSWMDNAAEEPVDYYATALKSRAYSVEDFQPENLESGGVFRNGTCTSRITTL
T2 sequence (P32745 whole entry, species assumed): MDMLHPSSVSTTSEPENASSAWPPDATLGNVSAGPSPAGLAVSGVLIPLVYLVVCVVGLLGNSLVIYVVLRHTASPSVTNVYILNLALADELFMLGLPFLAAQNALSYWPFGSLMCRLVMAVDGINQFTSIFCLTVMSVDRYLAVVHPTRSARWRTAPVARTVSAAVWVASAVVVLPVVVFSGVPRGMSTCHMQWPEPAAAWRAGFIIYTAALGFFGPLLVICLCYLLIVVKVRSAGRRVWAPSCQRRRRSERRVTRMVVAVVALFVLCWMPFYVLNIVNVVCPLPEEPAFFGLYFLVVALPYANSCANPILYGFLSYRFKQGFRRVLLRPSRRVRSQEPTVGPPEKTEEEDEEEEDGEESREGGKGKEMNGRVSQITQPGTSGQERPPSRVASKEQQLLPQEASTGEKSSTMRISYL

In general, EC50 refers to the concentration giving half of the maximal effect. A word on the Ki: it is the equilibrium dissociation constant of an inhibitor or competing ligand from its target. Lower therefore signals higher affinity. In the case of `CN1CCC[C@H](C(=O)NC(C)(C)c2cc(Cl)ccc2Cl)C1` [Example 21, (3S)—N-[2-(2,5-dichlorophenyl)propane-2-yl]-1-methylpiperidine-3-carboxamide], the “translocation of neprilysin to cell membrane” value in experiment [1] was “concentration-dependently induced the translocation of neprilysin to cell membrane”. The EC50 in experiment [1] (Homo sapiens, SH-SY5Y, overnight incubation, immunostaining, IN CELL Analyzer) was found to be 9.3 nM. For the same molecule, the Ki on SSTR2 was over 5000 nM; on SSTR3, over 3000 nM; at human SSTR4 it was 21 nM; on SSTR5, over 5000 nM; at SSTR1 it was 1570 nM. Further, the “hippocampus Aβ42 reducing action compared with the Vehicle” value in the experiment with Tg 2576 mice [2] (100 mg/kg/day) is given as “significant hippocampus Aβ42 reducing action”. The “hippocampus Aβ42” value with Tg 2576 mice [2] (100 mg/kg/day mixed in feed for 4 months) is 198.11 ± 26.32 pmol/g. Also, the memory enhancing action entry in the experiment with Slc:ddY mice [3] (3 mg/kg (oral), administered before the first trial) is recorded as “significant memory enhancing action”; in the experiment on Slc:ddY mice [3] (setting [6]) it was “significant memory enhancing action”. Also, the discrimination index in the experiment with Slc:ddY mice [3] (3 mg/kg oral, administered before the first trial, second trial 24 hours later) is 0.214±0.072; with Slc:ddY mice [3] (setting [6]), 0.245±0.066; in the experiment with Tg 2576 mice [4] it was 0.330±0.062. The “acetylcholine level in hippocampus perfusate compared with the Vehicle” value in the experiment on Crlj: WI rats is reported as “significantly enhanced acetylcholine level”. In addition, the “cognitive function improving action” value with Tg 2576 mice [4] is “significant cognitive function improving action”. The results for the spontaneous alternations in the experiment with Slc:ddY mice [5] (1 mg/kg oral) and in the experiment on Slc:ddY mice [5] (3 mg/kg oral) were 60.7±2.6 and 64.6±2.2, respectively. Also, the “ameliorating action in memory impairment” value in the experiment with Slc:ddY mice [5] (at 1 or 3 mg/kg (oral)) is listed as “significant ameliorating action in memory impairment”.
